# According to ChEMBL document CHEMBL1201862, “PubChem BioAssay data set” (2004):
#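 The compound was tested at five concentrations on cells cultured in 96-well plates, with a 48-hour exposure period. GI50: concentration for 50% inhibition of growth.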 The source made the active and inactive calls. No stated cut-off is given here; in the data, active = GI50 up to about 1.1 µM and inactive = higher.
# Tests used:
# Assay in all cases: NCI-60 cell line screen, 48 h
# [1] = test system: Hs-578T
# [2] = test system: PC-3
# [3] = test system: SF-268
# [4] = test system: SW-620
# [5] = test system: NCI/ADR-RES
# [6] = test system: U-251
# [7] = test system: RXF 393
# [8] = test system: T47D
# [9] = test system: M14
# [10] = test system: RPMI-8226
# [11] = test system: OVCAR-5
# [12] = test system: KM12
# [13] = test system: SNB-19
# [14] = test system: SNB-78
# [15] = test system: NCI-H460
# [16] = test system: HCT-15
# [17] = test system: OVCAR-4
# [18] = test system: COLO 205
# [19] = test system: LXFL 529
# [20] = test system: NCI-H226
# [21] = test system: UO-31
# [22] = test system: MDA-N
# [23] = test system: Malme-3M
# [24] = test system: LOX IMVI
# [25] = test system: SF-295
# [26] = test system: SF-539
# [27] = test system: SK-MEL-28
# [28] = test system: HL-60
# [29] = test system: OVCAR-8
# [30] = test system: EKVX
# [31] = test system: CAKI-1
# [32] = test system: K562
# [33] = test system: DLD-1
# [34] = test system: A498
# [35] = test system: KM-20L2
# [36] = test system: HOP-62
# [37] = test system: UACC-62
# [38] = test system: NCI-H522
# [39] = test system: MDA-MB-435
# [40] = test system: HOP-18
# [41] = test system: ACHN
# [42] = test system: BT-549
# [43] = test system: HT-29
# [44] = test system: HOP-92
# [45] = test system: SNB-75
# [46] = test system: SK-MEL-2
# [47] = test system: DMS-273
# [48] = test system: DU-145
# [49] = test system: MOLT-4
# [50] = test system: XF498
# [51] = test system: A549
# [52] = test system: MDA-MB-231
# [53] = test system: HCC 2998
# [54] = test system: TK-10
# [55] = test system: CCRF-CEM
# [56] = test system: SK-MEL-5
# [57] = test system: SR
# [58] = test system: DMS-114
# [59] = test system: SK-OV-3
# [60] = test system: HCT-116
# [61] = test system: MCF7
# [62] = test system: UACC-257
# [63] = test system: SN12C
# [64] = test system: IGROV-1
# [65] = test system: OVCAR-3
# [66] = test system: 786-0
# [67] = test system: NCI-H23
# [68] = test system: M19-MEL
smiles,measurement,setting,value
Clc1ccc(-c2c(C3=NCCCN3)nnn2-c2ccc(Cl)cc2)cc1,GI50,[1],26.9 µM (inactive)
same,GI50,[2],31.1 µM (inactive)
same,GI50,[3],48.8 µM (inactive)
same,GI50,[4],49.8 µM (inactive)
same,GI50,[5],> 50.6 µM (inactive)
same,GI50,[6],49.8 µM (inactive)
same,GI50,[7],17.7 µM (inactive)
same,GI50,[8],31.3 µM (inactive)
same,GI50,[9],16.7 µM (inactive)
same,GI50,[10],31.4 µM (inactive)
same,GI50,[11],35.3 µM (inactive)
same,GI50,[12],57.4 µM (inactive)
same,GI50,[13],> 68.7 µM (inactive)
same,GI50,[14],43.6 µM (inactive)
same,GI50,[15],40.9 µM (inactive)
same,GI50,[16],75.5 µM
same,GI50,[17],> 65.2 µM (inactive)
same,GI50,[18],16.6 µM (inactive)
same,GI50,[19],29 µM (inactive)
same,GI50,[20],60.3 µM (inactive)
same,GI50,[21],39.1 µM (inactive)
same,GI50,[22],19.1 µM (inactive)
same,GI50,[23],17.8 µM (inactive)
same,GI50,[24],21.1 µM (inactive)
same,GI50,[25],34.7 µM (inactive)
same,GI50,[26],31.4 µM (inactive)
same,GI50,[27],17.1 µM (inactive)
same,GI50,[28],17.5 µM (inactive)
same,GI50,[29],> 70.3 µM (inactive)
same,GI50,[30],63.1 µM (inactive)
same,GI50,[31],60.1 µM (inactive)
same,GI50,[32],20.9 µM (inactive)
same,GI50,[33],> 68.9 µM (inactive)
same,GI50,[34],29.4 µM (inactive)
same,GI50,[35],29.5 µM (inactive)
same,GI50,[36],55.5 µM (inactive)
same,GI50,[37],18.5 µM (inactive)
same,GI50,[38],32.9 µM (inactive)
same,GI50,[39],19.2 µM (inactive)
same,GI50,[40],> 100 µM (inactive)
same,GI50,[41],> 78.2 µM (inactive)
same,GI50,[42],> 55.1 µM (inactive)
same,GI50,[43],21.3 µM (inactive)
same,GI50,[44],22.8 µM (inactive)
same,GI50,[45],29.8 µM (inactive)
same,GI50,[46],17.4 µM (inactive)
same,GI50,[47],60.5 µM (inactive)
same,GI50,[48],> 91.2 µM (inactive)
same,GI50,[49],27.4 µM (inactive)
same,GI50,[50],22.6 µM (inactive)
same,GI50,[51],> 76 µM (inactive)
same,GI50,[52],> 48.2 µM (inactive)
same,GI50,[53],18.2 µM (inactive)
same,GI50,[54],40 µM (inactive)
same,GI50,[55],31.8 µM (inactive)
same,GI50,[56],17.7 µM (inactive)
same,GI50,[57],15.7 µM (inactive)
same,GI50,[58],21.7 µM (inactive)
same,GI50,[59],> 76.6 µM (inactive)
same,GI50,[60],28.9 µM (inactive)
same,GI50,[61],26.8 µM (inactive)
same,GI50,[62],22.3 µM (inactive)
same,GI50,[63],64 µM (inactive)
same,GI50,[64],56 µM (inactive)
same,GI50,[65],> 78.7 µM (inactive)
same,GI50,[66],40.9 µM (inactive)
same,GI50,[67],> 79.1 µM (inactive)
CCOC(=O)c1c(C)c2c(n1C)CCc1c[nH]nc1-2,GI50,[3],> 100 µM (inactive)
same,GI50,[4],> 100 µM (inactive)
same,GI50,[5],> 100 µM (inactive)
same,GI50,[6],> 100 µM (inactive)
same,GI50,[7],> 100 µM (inactive)
same,GI50,[10],> 100 µM (inactive)
same,GI50,[11],99.1 µM (inactive)
same,GI50,[12],> 100 µM (inactive)
same,GI50,[13],> 64.6 µM (inactive)
same,GI50,[14],> 100 µM (inactive)
same,GI50,[15],> 100 µM (inactive)
same,GI50,[16],> 100 µM
same,GI50,[17],> 100 µM (inactive)
same,GI50,[18],> 100 µM (inactive)
same,GI50,[20],> 100 µM (inactive)
same,GI50,[21],> 100 µM (inactive)
same,GI50,[23],> 100 µM (inactive)
same,GI50,[24],> 100 µM (inactive)
same,GI50,[25],> 100 µM (inactive)
same,GI50,[26],> 100 µM (inactive)
same,GI50,[27],> 100 µM (inactive)
same,GI50,[28],> 100 µM (inactive)
same,GI50,[29],> 100 µM (inactive)
same,GI50,[30],18 µM (inactive)
same,GI50,[31],> 100 µM (inactive)
same,GI50,[32],> 100 µM (inactive)
same,GI50,[33],> 100 µM (inactive)
same,GI50,[34],> 100 µM (inactive)
same,GI50,[35],> 100 µM (inactive)
same,GI50,[36],> 100 µM (inactive)
same,GI50,[37],> 100 µM (inactive)
same,GI50,[68],> 100 µM (inactive)
same,GI50,[38],> 100 µM (inactive)
same,GI50,[40],> 100 µM (inactive)
same,GI50,[43],> 100 µM (inactive)
same,GI50,[44],> 100 µM (inactive)
same,GI50,[45],> 100 µM (inactive)
same,GI50,[46],> 100 µM (inactive)
same,GI50,[47],> 100 µM (inactive)
same,GI50,[49],> 100 µM (inactive)
same,GI50,[50],> 100 µM (inactive)
same,GI50,[51],> 100 µM (inactive)
same,GI50,[53],> 100 µM (inactive)
same,GI50,[55],> 100 µM (inactive)
same,GI50,[56],> 100 µM (inactive)
same,GI50,[58],> 100 µM (inactive)
same,GI50,[59],> 100 µM (inactive)
same,GI50,[60],> 100 µM (inactive)
same,GI50,[61],> 100 µM (inactive)
same,GI50,[62],> 100 µM (inactive)
same,GI50,[63],> 100 µM (inactive)
same,GI50,[64],> 100 µM (inactive)
same,GI50,[65],> 100 µM (inactive)
same,GI50,[67],> 100 µM (inactive)
